3 molecules from ChEMBL document CHEMBL3856204, “Chiral 6-aryl-furo[2,3-d]pyrimidin-4-amines as EGFR inhibitors” (Eur J Med Chem, 2016) can be followed below.

The target of experiment [1] is Platelet-derived growth factor receptor alpha (Homo sapiens) (UniProt P16234). Put plainly: Inhibition of GST tagged recombinant human PGFRA cytoplasmic domain (550 to 1089 residues) expressed in baculovirus at 500 nM by Z'-LYTE assay.
Experiment [2] concerns the target Protein kinase C alpha type (Homo sapiens) (UniProt P17252). The experiment in a line: Inhibition of recombinant full length human PRKCA expressed in baculovirus at 500 nM by Z'-LYTE assay.
For experiment [3], the target named is Protein kinase C beta type (Homo sapiens) (UniProt P05771). The experiment in a line: Inhibition of recombinant full length human PRKCB1 expressed in baculovirus at 500 nM by Z'-LYTE assay.
Experiment [4] deals with Epidermal growth factor receptor (Homo sapiens, UniProt P00533). The experiment in a line: Inhibition of recombinant human GST-tagged EGFR cytoplasmic domain (668 to 1210 residues) expressed in baculovirus by Z'-LYTE assay.
Experiment [5] addresses Tyrosine-protein kinase ABL1 (Homo sapiens) (UniProt P00519). The experiment in a line: Inhibition of His tagged recombinant full length human ABL1 expressed in baculovirus at 500 nM by Z'-LYTE assay.
Experiment [6] concerns the target Tyrosine-protein kinase Blk (Homo sapiens) (UniProt P51451). Put plainly: Inhibition of His tagged recombinant full length human BLK expressed in baculovirus at 500 nM by Z'-LYTE assay.
The target of experiment [7] is Serine/threonine-protein kinase B-raf (Homo sapiens) (UniProt P15056). The experiment in a line: Inhibition of GST tagged recombinant full length human BRAF expressed in baculovirus at 500 nM by Z'-LYTE assay.
For experiment [8], the target named is Macrophage colony-stimulating factor 1 receptor (Homo sapiens) (UniProt P07333). The experiment in a line: Inhibition of His tagged recombinant human FMS cytoplasmic domain (538 to 910 residues) expressed in baculovirus at 500 nM by Z'-LYTE assay.
The target in experiment [9] is Tyrosine-protein kinase CSK (Homo sapiens) (UniProt P41240). The experiment in a line: Inhibition of His tagged recombinant full length human CSK expressed in Escherichia coli at 500 nM by Z'-LYTE assay.
The target in experiment [10] is Ephrin type-A receptor 1 (Homo sapiens) (UniProt P21709). The experiment in a line: Inhibition of GST tagged recombinant human EPHA1 cytoplasmic domain (568 to 976 residues) expressed in baculovirus at 500 nM by Z'-LYTE assay.
In experiment [11] the target is Receptor tyrosine-protein kinase erbB-2 (Homo sapiens) (UniProt P04626). Put plainly: Inhibition of His tagged recombinant human ErbB2 cytoplasmic domain (676 to 1255 residues) expressed in baculovirus at 500 nM by Z'-LYTE assay.
For experiment [12], the target named is Receptor tyrosine-protein kinase erbB-4 (Homo sapiens) (UniProt Q15303). Put plainly: Inhibition of GST tagged recombinant human ERBB4 cytoplasmic domain (708 to 993 residues) expressed in baculovirus at 500 nM by Z'-LYTE assay.
Experiment [13] addresses Tyrosine-protein kinase Fgr (Homo sapiens) (UniProt P09769). The experiment in a line: Inhibition of recombinant full length human C-terminal His-tagged FGR expressed in baculovirus at 500 nM by Z'-LYTE assay.
The target in experiment [14] is Vascular endothelial growth factor receptor 1 (Homo sapiens) (UniProt P17948). Put plainly: Inhibition of GST tagged recombinant human FLT1 cytoplasmic domain (781 to 1338 residues) expressed in baculovirus at 500 nM by Z'-LYTE assay.
Experiment [15] has as its target Vascular endothelial growth factor receptor 3 (Homo sapiens) (UniProt P35916). Put plainly: Inhibition of GST tagged recombinant human FLT4 cytoplasmic domain (800 to 1297 residues) expressed in baculovirus at 500 nM by Z'-LYTE assay.
The target in experiment [16] is Tyrosine-protein kinase FRK (Homo sapiens) (UniProt P42685). Put plainly: Inhibition of GST tagged recombinant full length human FRK expressed in baculovirus at 500 nM by Z'-LYTE assay.
Sequence of Tyrosine-protein kinase FRK (Homo sapiens) (P42685 whole entry): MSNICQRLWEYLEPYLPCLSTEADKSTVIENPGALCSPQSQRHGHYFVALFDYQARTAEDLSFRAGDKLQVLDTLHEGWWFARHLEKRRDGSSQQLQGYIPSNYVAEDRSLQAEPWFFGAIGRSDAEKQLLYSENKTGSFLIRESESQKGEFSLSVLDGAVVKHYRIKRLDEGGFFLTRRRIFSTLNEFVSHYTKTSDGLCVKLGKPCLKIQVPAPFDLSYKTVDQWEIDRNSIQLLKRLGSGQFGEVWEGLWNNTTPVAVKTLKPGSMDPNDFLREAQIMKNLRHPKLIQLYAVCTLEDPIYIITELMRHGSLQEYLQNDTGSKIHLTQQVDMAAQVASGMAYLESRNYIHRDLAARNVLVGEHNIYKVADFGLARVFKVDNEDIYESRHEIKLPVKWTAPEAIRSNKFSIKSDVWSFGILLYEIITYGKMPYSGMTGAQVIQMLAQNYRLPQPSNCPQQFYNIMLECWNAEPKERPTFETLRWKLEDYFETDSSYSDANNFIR
For experiment [17], the target named is Tyrosine-protein kinase Fyn (Homo sapiens) (UniProt P06241). Put plainly: Inhibition of recombinant full length human C-terminal His-tagged FYN expressed in baculovirus at 500 nM by Z'-LYTE assay.
The target in experiment [18] is Tyrosine-protein kinase JAK2 (Homo sapiens) (UniProt O60674). Put plainly: Inhibition of GST tagged recombinant human JAK2 (809 to 1153 + 9 residues) expressed in baculovirus at 500 nM by Z'-LYTE assay.
The target of experiment [19] is Mast/stem cell growth factor receptor Kit (Homo sapiens) (UniProt P10721). Put plainly: Inhibition of His tagged recombinant human KIT cytoplasmic domain (544 to 976 residues) expressed in baculovirus at 500 nM by Z'-LYTE assay.
Experiment [20] deals with Tyrosine-protein kinase Lyn (Homo sapiens) (UniProt P07948). Put plainly: Inhibition of recombinant full length human N-terminal GST tagged LYN A expressed in insect cells at 500 nM by Z'-LYTE assay.
Sequence of Tyrosine-protein kinase Lyn (Homo sapiens) (P07948 2-512 limits assumed): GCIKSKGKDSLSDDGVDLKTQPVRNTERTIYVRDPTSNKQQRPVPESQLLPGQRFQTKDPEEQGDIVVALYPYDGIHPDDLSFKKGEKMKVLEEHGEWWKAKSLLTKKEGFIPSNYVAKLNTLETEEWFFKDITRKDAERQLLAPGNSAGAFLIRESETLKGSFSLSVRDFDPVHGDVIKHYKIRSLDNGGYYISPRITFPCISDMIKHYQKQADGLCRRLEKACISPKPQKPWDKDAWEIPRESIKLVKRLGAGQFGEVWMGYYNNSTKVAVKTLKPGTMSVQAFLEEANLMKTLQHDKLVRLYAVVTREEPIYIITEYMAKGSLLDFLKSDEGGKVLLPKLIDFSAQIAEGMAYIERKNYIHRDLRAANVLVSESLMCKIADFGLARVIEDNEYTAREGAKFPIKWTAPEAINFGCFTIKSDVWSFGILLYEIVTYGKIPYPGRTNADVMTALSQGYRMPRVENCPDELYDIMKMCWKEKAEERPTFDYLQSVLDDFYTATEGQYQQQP
Experiment [21] has the same target. Put plainly: Inhibition of His tagged C-terminal recombinant full length human LYN B expressed in baculovirus at 500 nM by Z'-LYTE assay.
In experiment [22] the target is Mitogen-activated protein kinase 1 (Homo sapiens) (UniProt P28482). The experiment in a line: Inhibition of GST tagged recombinant full length human ERK2 expressed in Escherichia coli at 500 nM by Z'-LYTE assay.
Experiment [23] concerns the target Mitogen-activated protein kinase 14 (Homo sapiens) (UniProt Q16539). The experiment in a line: Inhibition of GST tagged recombinant full length human p38 alpha expressed in Escherichia coli at 500 nM by Z'-LYTE assay.
Experiment [24] addresses Mitogen-activated protein kinase 8 (Homo sapiens) (UniProt P45983). Put plainly: Inhibition of His tagged recombinant full length human JNK1 expressed in baculovirus at 500 nM by Z'-LYTE assay.
Experiment [25] has as its target Serine/threonine-protein kinase pim-2 (Homo sapiens) (UniProt Q9P1W9). Put plainly: Inhibition of GST tagged recombinant full length human PIM2 expressed in baculovirus at 500 nM by Z'-LYTE assay.
Experiment [26] deals with Proto-oncogene tyrosine-protein kinase receptor Ret (Homo sapiens) (UniProt P07949). The experiment in a line: Inhibition of GST tagged recombinant human RET cytoplasmic domain (658 to 1114 residues) expressed in baculovirus at 500 nM by Z'-LYTE assay.
Sequence of Proto-oncogene tyrosine-protein kinase receptor Ret (Homo sapiens) (P07949 whole entry, the tested form may be a part): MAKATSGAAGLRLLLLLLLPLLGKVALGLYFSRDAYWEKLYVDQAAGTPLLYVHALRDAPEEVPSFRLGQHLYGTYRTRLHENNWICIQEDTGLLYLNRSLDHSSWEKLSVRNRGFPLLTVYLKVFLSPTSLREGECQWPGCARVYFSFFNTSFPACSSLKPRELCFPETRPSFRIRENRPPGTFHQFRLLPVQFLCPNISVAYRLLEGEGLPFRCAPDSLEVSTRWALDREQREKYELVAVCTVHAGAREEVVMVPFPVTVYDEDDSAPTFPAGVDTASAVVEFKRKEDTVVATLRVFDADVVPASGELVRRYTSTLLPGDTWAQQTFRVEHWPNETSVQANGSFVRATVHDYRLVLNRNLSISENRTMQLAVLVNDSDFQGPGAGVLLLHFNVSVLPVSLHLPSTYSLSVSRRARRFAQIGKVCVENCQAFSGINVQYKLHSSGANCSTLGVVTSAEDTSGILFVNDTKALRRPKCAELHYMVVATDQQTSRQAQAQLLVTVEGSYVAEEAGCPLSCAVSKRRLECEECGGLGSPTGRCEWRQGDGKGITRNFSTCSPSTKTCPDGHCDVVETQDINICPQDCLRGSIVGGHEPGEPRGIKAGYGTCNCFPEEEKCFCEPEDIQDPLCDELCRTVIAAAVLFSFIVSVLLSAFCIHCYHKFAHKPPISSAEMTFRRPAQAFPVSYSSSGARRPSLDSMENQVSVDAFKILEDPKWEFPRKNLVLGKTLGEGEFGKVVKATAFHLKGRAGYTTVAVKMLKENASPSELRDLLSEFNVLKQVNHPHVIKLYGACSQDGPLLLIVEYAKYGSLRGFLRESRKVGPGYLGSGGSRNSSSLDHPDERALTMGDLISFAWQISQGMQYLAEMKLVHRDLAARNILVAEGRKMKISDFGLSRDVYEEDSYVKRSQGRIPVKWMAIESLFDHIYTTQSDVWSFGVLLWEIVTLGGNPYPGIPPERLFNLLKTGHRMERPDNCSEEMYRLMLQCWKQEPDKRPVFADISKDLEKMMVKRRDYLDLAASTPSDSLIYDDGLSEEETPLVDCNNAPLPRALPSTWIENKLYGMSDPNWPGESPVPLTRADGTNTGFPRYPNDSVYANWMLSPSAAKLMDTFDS
Experiment [27] addresses Proto-oncogene tyrosine-protein kinase Src (Homo sapiens) (UniProt P12931). Put plainly: Inhibition of recombinant full length human C-terminal His-tagged SRC expressed in baculovirus at 500 nM by Z'-LYTE assay.
Experiment [28] deals with Testis-specific serine/threonine-protein kinase 2 (Homo sapiens) (UniProt Q96PF2). Put plainly: Inhibition of His tagged recombinant full length human STK22B expressed in baculovirus at 500 nM by Z'-LYTE assay.
The target of experiment [29] is Angiopoietin-1 receptor (Homo sapiens) (UniProt Q02763). The experiment in a line: Inhibition of GST tagged recombinant human Tie2 cytoplasmic domain (817 to 1101 residues) expressed in baculovirus at 500 nM by Z'-LYTE assay.

Sequence of Platelet-derived growth factor receptor alpha (Homo sapiens) (P16234 whole entry, the tested form may be a part): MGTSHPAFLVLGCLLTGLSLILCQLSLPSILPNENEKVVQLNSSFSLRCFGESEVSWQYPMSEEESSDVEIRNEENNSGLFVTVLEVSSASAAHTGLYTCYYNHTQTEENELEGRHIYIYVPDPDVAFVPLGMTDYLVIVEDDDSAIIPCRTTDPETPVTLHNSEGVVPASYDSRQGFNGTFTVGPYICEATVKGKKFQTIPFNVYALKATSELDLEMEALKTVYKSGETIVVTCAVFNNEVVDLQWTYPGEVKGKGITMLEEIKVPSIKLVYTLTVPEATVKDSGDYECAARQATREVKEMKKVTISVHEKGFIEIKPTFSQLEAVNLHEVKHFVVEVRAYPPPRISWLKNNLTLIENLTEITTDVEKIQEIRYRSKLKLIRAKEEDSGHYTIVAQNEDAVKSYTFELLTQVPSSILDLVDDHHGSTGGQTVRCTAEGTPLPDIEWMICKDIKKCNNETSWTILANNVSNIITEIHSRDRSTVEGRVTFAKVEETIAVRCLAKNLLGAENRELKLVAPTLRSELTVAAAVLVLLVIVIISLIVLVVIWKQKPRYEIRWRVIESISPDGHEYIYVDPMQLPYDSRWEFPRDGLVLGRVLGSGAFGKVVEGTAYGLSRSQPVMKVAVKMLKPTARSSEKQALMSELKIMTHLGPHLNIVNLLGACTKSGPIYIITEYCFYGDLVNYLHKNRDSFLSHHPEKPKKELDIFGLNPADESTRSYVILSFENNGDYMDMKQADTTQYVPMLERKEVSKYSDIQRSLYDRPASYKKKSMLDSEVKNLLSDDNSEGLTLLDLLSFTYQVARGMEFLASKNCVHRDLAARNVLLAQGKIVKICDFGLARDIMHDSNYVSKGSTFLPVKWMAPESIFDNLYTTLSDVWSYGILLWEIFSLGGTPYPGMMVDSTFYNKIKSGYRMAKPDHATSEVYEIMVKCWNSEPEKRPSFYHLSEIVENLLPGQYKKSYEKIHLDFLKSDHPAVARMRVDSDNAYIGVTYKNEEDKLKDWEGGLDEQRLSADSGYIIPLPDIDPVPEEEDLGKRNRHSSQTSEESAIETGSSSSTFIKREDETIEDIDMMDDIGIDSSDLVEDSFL
Sequence of Tyrosine-protein kinase ABL1 (Homo sapiens) (P00519 whole entry): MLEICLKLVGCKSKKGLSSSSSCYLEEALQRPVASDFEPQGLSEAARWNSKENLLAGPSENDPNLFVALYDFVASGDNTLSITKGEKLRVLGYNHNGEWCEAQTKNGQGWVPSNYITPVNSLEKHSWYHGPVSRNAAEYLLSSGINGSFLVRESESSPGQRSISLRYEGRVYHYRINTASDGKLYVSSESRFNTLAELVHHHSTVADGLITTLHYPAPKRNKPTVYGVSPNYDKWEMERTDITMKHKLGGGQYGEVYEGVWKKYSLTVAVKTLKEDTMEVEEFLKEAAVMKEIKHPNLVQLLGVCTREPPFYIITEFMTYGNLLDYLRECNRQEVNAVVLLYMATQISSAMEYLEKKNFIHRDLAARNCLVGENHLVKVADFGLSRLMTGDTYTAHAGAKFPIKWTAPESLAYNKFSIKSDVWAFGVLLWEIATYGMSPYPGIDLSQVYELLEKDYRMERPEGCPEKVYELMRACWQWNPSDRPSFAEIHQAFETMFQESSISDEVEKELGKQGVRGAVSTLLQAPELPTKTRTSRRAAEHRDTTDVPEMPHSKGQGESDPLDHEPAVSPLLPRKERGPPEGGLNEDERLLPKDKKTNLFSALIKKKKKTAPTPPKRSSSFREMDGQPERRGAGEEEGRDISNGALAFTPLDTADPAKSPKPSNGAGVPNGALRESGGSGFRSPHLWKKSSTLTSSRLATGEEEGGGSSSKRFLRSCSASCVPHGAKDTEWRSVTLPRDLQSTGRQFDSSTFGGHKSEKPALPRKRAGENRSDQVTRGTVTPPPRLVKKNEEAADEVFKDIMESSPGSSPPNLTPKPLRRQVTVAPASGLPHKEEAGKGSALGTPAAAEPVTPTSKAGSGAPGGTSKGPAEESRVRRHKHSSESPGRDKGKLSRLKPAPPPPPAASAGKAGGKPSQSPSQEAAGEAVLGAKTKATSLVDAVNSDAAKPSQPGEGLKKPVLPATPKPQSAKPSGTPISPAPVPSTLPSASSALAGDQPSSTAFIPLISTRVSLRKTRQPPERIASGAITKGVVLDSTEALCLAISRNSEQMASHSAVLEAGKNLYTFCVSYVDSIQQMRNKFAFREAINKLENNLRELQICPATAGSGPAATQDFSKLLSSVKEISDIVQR
Sequence of Proto-oncogene tyrosine-protein kinase Src (Homo sapiens) (P12931 2-536 limits assumed): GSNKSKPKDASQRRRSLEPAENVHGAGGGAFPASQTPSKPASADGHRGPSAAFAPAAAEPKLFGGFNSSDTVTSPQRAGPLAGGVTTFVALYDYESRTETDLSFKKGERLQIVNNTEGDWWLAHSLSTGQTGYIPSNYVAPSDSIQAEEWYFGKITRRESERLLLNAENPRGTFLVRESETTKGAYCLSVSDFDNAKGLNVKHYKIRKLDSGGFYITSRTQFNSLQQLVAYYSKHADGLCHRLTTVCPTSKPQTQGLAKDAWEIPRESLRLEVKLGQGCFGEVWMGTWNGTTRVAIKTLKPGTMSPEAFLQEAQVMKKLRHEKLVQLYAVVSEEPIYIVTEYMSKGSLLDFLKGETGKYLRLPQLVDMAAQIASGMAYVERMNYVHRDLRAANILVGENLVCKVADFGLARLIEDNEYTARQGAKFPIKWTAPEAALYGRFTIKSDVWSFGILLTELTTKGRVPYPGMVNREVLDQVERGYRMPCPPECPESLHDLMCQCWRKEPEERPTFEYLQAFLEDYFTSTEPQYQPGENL

For orientation: inhibition means the relative decrease from the control value, in per cent. For the molecule `C#Cc1cccc(Nc2ncnc3cc(OCCOC)c(OCCOC)cc23)c1`, the inhibition in [1] is 5%; in experiment [2] it was 2%; in experiment [3] it was -2%.
For orientation: IC50 means the point on the concentration scale where inhibition reaches its midpoint. Take `C[C@@H](Nc1ncnc2oc(-c3ccc(NCCN(C)C)cc3)cc12)c1ccccc1`: the half-maximal inhibitory concentration (IC50) in [4] was 0.4 nM. Also, the inhibition is 37% in experiment [5]; 3% in experiment [6]; 8% in [7]; 79% in [8]; 12% in experiment [9]; 26% in [10]. Further, the inhibition in experiment [11] was 23%; in experiment [12], 32%; in experiment [13], 60%; in experiment [14], -2%; in experiment [15], 4%; in [16], 31%. For the same molecule, the inhibition is 13% in [17]; -8% in experiment [18]; 19% in [19]; 35% in experiment [20]; 41% in experiment [21]; -3% in [22]. The inhibition in experiment [23] was 15%; in experiment [24] it was 1%; in experiment [1] it was 27%; in experiment [25], -3%; in [2], -9%; in [3], -10%. Also, the inhibition is 11% in [26], 12% in experiment [27], -1% in experiment [28] and 9% in experiment [29].
With `C[C@@H](Nc1ncnc2oc(-c3ccc(NCCN4CCCCC4)cc3)cc12)c1ccccc1`, the IC50 in [4] turned out to be 0.6 nM. Besides, the inhibition was found to be 30% in experiment [5]; 0% in experiment [6]; 9% in experiment [7]; 78% in [8]; 8% in experiment [9]; 34% in experiment [10]. Further, the inhibition in [11] was determined as 15%; in [12], 18%; in [13], 56%; in experiment [14], 1%; in experiment [15], 4%; in experiment [16] it was 21%. For the same molecule, the inhibition in [17] was 12%; in experiment [19] it was 7%; in experiment [20], 37%; in experiment [21], 46%; in experiment [22], -1%; in [23] it was 16%. Moreover, the inhibition in [24] is 6%; in [1], 22%; in [26] it was 11%; in experiment [27] it was 17%; in [28], 2%; in experiment [29], 8%.
